Assay results as given in patent US5049551A, “5-fluorouracil, 2'-deoxy-5-fluorouridine and 1-carbomoyl-5-fluorouracil compounds” (UBE Industries, Ltd., priority 1989, dated 1991).

Experiments:
[1] = background; cited from earlier work
KB cell [2] = test: Cell proliferation inhibition, KB cells, Pharmacological test example 1; format: cell-based; conditions: Homo sapiens, 2×10^4 planted, compound added after 12 hours, 5 days culture, read-out: IC50 (50% cell proliferation inhibiting concentration)
[3] = Acute toxicity, oral, Pharmacological test example 3; conditions: in vivo, 7 week-old BDF2 female mouse, 21 days after administration, read-out: ID50 (LD50 from mortality)
Procedure: The compounds of the present invention obtained in Examples 4 and 7 were orally administered to 7 week-old BDF2 female mouse (10 mice per group). After 21 days from the administration, mortality of the mice was judged and LD50 value was evaluated from mortality according to the Richfield-Wilcokson method.

KB cell [4] = test: Cell proliferation inhibition, KB cells, Pharmacological test example 2; format: cell-based; conditions: Homo sapiens, 5×10^3 planted, compound added after 24 hours, 5 days culture, read-out: IC50 (50% cell proliferation inhibiting concentration)
Procedure: To a microwell having 9 holes were planted KB cell with 5×10^3, respectively, and after 24 hours, the compound of the present invention obtained in Example 7 and 5-fluorouracil were added. After cultivating for 5 days, the number of cells were measured and from a cell proliferation inhibiting ratio-concentration curve, 50% cell proliferation inhibiting concentration (IC50 value) at which the inhibiting ratio becomes 50% was evaluated.

SMILES | antitumor effects compared with 5-fluorouracil [1] | IC50 (KB cell [2]) | LD50 at 504 h [3] | further results
C[C@H]1O[C@@H](n2cc(F)c(=O)[nH]c2=O)[C@H](O)[C@@H]1O [Doxifluridine, 5'-deoxy-5-fluorouridine] | inferior to that of 5-fluorouracil |  |  | 
CCCCCCNC(=O)n1cc(F)c(=O)[nH]c1=O [Carmofur, 1-n-hexylcarbamoyl-5-fluorouracil] | inferior to that of 5-fluorouracil |  |  | 
O=c1[nH]c(=O)n(C2CCCO2)cc1F (centres unmarked) [Tegafur, 1-(2-tetrahydrofulyl)-5-fluorouracil] | inferior to that of 5-fluorouracil |  |  | 
CCCC(CCC)C(=O)NCC(=O)OC[C@H]1O[C@@H](n2cc(F)c(=O)[nH]c2=O)[C@H](O)[C@@H]1OC(=O)CNC(=O)C(CCC)CCC [Example 4, 3',5'-bis-O-[N-(2n-propyl-n-pentanoyl)-glycyl]-5-fluorouridine] |  | 1.8 µM | ≥ 3000 mg/kg | 
O=c1[nH]cc(F)c(=O)[nH]1 [5-Fluorouracil, 5-fluorouracil] |  | 17.7 µM | 928 mg/kg | IC50 (KB cell [4]): 0.75 µM; antitumor activity [1]: insufficient; toxicity [1]: potent toxicity
CCCC(CCC)C(=O)NCC(=O)NCCCCCCNC(=O)n1cc(F)c(=O)[nH]c1=O [Example 7, 1-[6-[N-(2-n-propyl-n-pentanoyl)glycyl]amino-n-hexylcarbamoyl]-5-fluorouracil] |  |  | ≥ 1000 mg/kg | IC50 (KB cell [4]): 0.66 µM
CCCC(CCC)C(=O)NCC(=O)OC[C@H]1O[C@@H](n2cc(F)c(=O)[nH]c2=O)[C@H](OC(=O)CNC(=O)C(CCC)CCC)[C@@H]1OC(=O)CNC(=O)C(CCC)CCC [Example 1, 2',3',5'-tris-O-[N-(2-n-propyl-n-pentanoyl)-glycyl]-5-fluorouridine] |  | 2 µM | ≥ 5000 mg/kg | 
